Source: publication PMC4450258 (Molecular neurobiology, 2014)

Target: T1, Sterol carrier protein 2 (SCP-2) (Homo sapiens, UniProt P22307)
T1 sequence (P22307 425-547): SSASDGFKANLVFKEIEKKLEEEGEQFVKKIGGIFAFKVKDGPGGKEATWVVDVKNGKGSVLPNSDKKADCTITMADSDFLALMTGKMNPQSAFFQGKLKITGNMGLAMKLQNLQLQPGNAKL
Format: biochemical

Compound: CCCCC/C=C\C/C=C\C/C=C\C/C=C\CCCC(=O)NCCO [AEA, N-arachidonylethanolamine]
- inhibition of recombinant SCP-2-mediated [14C]cholesterol transfer from SUVs to: ~ 50 µM
